Experimental data as given in publication PMC6527550, “Discovery of processive catalysis by an exo-hydrolase with a pocket-shaped active site” (Nature Communications, 2019).
Read-outs that look alike come from different tables or passages of the source.

Tests used:
[1] = biological target: native HvExoI (Hordeum vulgare, UniProt Q9XEI3); assay: Inhibition kinetics (Ki) with 4-nitrophenyl β-D-glucopyranoside substrate; type: biochemical, barley (Hordeum vulgare); settings: for ΔG: calculated from Ki; for ΔG / Ki: native HvExoI; for Ki: inhibition kinetics, 4-nitrophenyl β-D-glucopyranoside substrate, 30 °C, pH 5.25
Chain of native HvExoI (Q9XEI3 entry or part of it): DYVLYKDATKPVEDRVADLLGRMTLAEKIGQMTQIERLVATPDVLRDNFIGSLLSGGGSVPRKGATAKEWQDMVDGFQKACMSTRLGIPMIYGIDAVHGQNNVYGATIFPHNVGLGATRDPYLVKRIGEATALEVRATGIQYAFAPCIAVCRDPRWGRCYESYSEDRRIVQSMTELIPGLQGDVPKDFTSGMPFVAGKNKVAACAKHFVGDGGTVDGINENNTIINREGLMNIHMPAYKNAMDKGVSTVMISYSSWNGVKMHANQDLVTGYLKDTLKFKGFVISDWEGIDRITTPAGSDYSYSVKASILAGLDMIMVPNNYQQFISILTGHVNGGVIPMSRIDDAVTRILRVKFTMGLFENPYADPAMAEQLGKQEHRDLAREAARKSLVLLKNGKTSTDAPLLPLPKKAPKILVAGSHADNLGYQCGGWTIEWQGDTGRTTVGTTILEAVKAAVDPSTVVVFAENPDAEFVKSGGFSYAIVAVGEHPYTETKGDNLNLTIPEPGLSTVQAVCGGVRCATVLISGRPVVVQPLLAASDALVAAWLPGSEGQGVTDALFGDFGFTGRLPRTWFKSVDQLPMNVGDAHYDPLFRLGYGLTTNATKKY
Method: Ki values of deoxy-glucose and alkyl β-D-glucoside derivatives, and G2SG-OMe with native HvExoI were derived from hydrolytic rates. Enzyme inactivation was monitored at 30 °C by incubating […] of the enzyme in 100 mM sodium acetate buffer, pH 5.25, containing 0.8–6.6 mM 4NPGlc as a substrate, 160 μg/ml BSA, and 3dGlc, 4dGlc, octyl-O-Glc, octyl-S-Glc and G2SG-OMe. Each inhibitor was tested at six concentrations at 0.4–3 times the Ki values in duplicate. We used the v = Vmax S / [KM × (1 + I/Ki) + S] equation to calculate Ki constant; Ki is defined as a dissociation constant of the enzyme-inhibitor complex. The enzyme activity was monitored at 410 nm and Dixon plots were used to determine Ki under the pseudo-first-order rate limiting conditions by a non-linear regression analysis, as described previously.

[2] = biological target: recombinant HvExoI (Hordeum vulgare, UniProt Q9XEI3); assay: Steady-state affinity binding by Surface Plasmon Resonance; design: species or system barley (Hordeum vulgare); settings: for ΔG: calculated from KD
Chain of recombinant HvExoI (Q9XEI3 entry or part of it): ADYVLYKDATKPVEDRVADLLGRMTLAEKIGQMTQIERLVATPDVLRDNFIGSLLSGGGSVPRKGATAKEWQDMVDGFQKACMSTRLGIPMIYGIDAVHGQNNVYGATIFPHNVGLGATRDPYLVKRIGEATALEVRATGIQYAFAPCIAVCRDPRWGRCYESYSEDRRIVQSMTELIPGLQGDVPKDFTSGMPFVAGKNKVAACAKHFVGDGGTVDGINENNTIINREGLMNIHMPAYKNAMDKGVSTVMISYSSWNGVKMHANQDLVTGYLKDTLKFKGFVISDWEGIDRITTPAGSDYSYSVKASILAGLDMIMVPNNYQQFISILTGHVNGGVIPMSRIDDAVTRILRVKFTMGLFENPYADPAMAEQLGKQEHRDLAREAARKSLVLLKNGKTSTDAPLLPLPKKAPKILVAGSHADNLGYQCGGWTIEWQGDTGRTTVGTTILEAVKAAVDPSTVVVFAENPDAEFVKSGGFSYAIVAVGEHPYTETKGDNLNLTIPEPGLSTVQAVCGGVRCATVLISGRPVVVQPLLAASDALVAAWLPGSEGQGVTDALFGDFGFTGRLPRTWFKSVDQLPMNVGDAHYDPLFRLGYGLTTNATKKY
Method: Interaction between recombinant HvExoI and analytes Glc (molecular mass 180.2 g), G6SG-OMe (372.4 g) and PEG (n = 5–10); (380–420 g) were performed using Surface Plasmon Resonance (SPR) at 25 °C using the Biacore X100 V2.0.1 instrument (GE Healthcare, USA) equipped with the plus package. Purified recombinant HvExoI at 99% homogeneity (detected by SDS-PAGE) was covalently attached to a CM5 chip (GE Healthcare) in 10 mM sodium acetate buffer, pH 5.0. The carboxymethyl groups present on the dextran layer of the CM5 chip were activated with 1-ethyl-3-(3-dimethylaminopropyl) carbodiimide hydrochloride (EDC) and N-hydroxysuccinimide (NHS) (GE Healthcare). Any unoccupied reactive sites were blocked by a 7 min injection of 1 M ethanolamine hydrochloride-NaOH, pH 8.5. A ligand density of ~15.000 RU of recombinant HvExoI was achieved. Due to the fast rate constants of interactions, it was impossible to obtain individual rate constants ka and kd. […] For each interaction serial dilutions of analytes covering the 10 · KD − 0.1 · KD concentration ranges were prepared in 10 mM HEPES-NaOH buffer, pH 7.4 with 150 mM NaCl. Samples were injected onto the surface of a chip at a rate of 30 µl/min for 90 s, after which the formed enzyme/analyte complexes could dissociate for 90 s. As all analytes dissociated completely from the surface of the recombinant enzyme immobilised on a chip, no regeneration steps were needed. All responses were double referenced using a blank-immobilised reference surface (NHS + EDC-activated/deactivated) and a series of blank injections conducted to account for the system and injection artefacts. For each analyte at least one concentration was injected in duplicate. Triplicate experiments were performed, and the double-referenced data were globally fitted using a 1:1 equilibrium interaction model and the Biacore T200 v2.0 analysis software (GE Healthcare). Steady-state affinity binding constants KD (Supplementary Fig. 3) were calculated 30 s after the onset of injections using a 5 s window in an average response in the fit.

Row | SMILES | ΔG [1] [kcal/mol] | Ki [1] [µM] | fold weaker binding than G6SG-OMe ([1]; Ki of G2SG-OMe compared with KD of G6SG-OMe) | ΔG ([2]; recombinant HvExoI) [kcal/mol] | Kd ([2]; steady-state affinity, Surface Plasmon Resonance, recombinant HvExoI, 25 °C, read-out: KD) [µM] | Kd [2] [µM]
1 | O=C[C@H](O)C[C@H](O)[C@H](O)CO [3dGlc, 3-deoxy-glucose] | -2.8 | 9800 |  |  |  | 
2 | O=C[C@H](O)[C@@H](O)C[C@H](O)CO [4dGlc, 4-deoxy-glucose] | -2.82 | 9400 |  |  |  | 
3 | CO[C@@H]1O[C@H](CO)[C@@H](O)[C@H](O)[C@H]1S[C@@H]1O[C@H](CO)[C@@H](O)[C@H](O)[C@H]1O [G2SG-OMe, methyl 2-S-β-D-glucopyranosyl-2-thio-β-D-glucopyranoside] | -3.61 | 2550 | about 320 fold |  |  | 
4 | CO[C@@H]1O[C@H](CS[C@@H]2O[C@H](CO)[C@@H](O)[C@H](O)[C@H]2O)[C@@H](O)[C@H](O)[C@H]1O [G6SG-OMe, methyl 6-S-β-D-glucopyranosyl-6-thio-β-D-glucopyranoside] |  |  |  | -6.96 | 8 | 
5 | OC[C@H]1OC(O)[C@H](O)[C@@H](O)[C@@H]1O (stereo partly drawn) [Glc] |  |  |  | -5.19 |  | 160
6 | CCCCCCCCO[C@@H]1O[C@H](CO)[C@@H](O)[C@H](O)[C@H]1O [Octyl-O-Glc, n-octyl β-D-glucopyranoside] | -5.4 | 130 |  |  |  | 
7 | CCCCCCCCS[C@@H]1O[C@H](CO)[C@@H](O)[C@H](O)[C@H]1O [Octyl-S-Glc, n-octyl 1-thio-β-D-glucopyranoside] | -4.11 | 1100 |  |  |  | 
